The values that follow come from paper PMC12393591, “Targeting Plasminogen Activator Inhibitor-1 with a Novel Small Molecule Inhibitor Attenuates Lung Fibrosis” (Research Square, 2025).

Data set [1] has as its system idiopathic pulmonary fibrosis. Also on record: method as in PMID 40387033. The settings on record: patients with IPF, phase 3 clinical trial; cited from earlier work.
Data set [2] concerns the target recombinant active human PAI-1 (Homo sapiens, UniProt P05121). The data set is described as follows: PAI-1 inhibitory activity against uPA (fluorogenic uPA substrate). Format: biochemical. As to conditions: for IC50: read-out: IC50 for inhibiting the activity of PAI-1 against uPA.
Method: At each drug concentration, parallel control reactions without PAI-1 were assembled. Residual enzymatic activity was determined by addition of an equal volume of 100 μM Z-Gly-Gly-Arg-AMC (Calbiochem) fluorogenic uPA substrate, and the rate of AMC release monitored at 23°C (excitation 370 nm and emission 440 nm). The percent change in PAI-1 activity was determined according to Eq. 1: [(Ei – Pi) / Ei] / [(E0 - P0) / E0], where Ei is the enzyme activity at drug concentration i; Pi is the enzyme activity in the presence of PAI-1 at drug concentration i; E0 is the enzyme activity in the absence of drug; and P0 is the enzyme activity in the presence of PAI-1 but in the absence of drug. Data were then plotted as the residual PAI-1 activity as a percentage of the control PAI-1 activity vs. compound concentration and from these curves the IC50 of each compound was calculated.
Data set [3] in a line: Non-GLP single dose PK, oral gavage. The class given is in vivo, CD-1 mice. As to conditions: mouse plasma, single dose 30 mg/kg oral gavage, n=3, mean ± SD. As to the method: A non-GLP comparative, single dose PK analysis of MDI-2268 versus MDI-2517 was performed by the University of Michigan Pharmacokinetics Core in CD-1 mice. Briefly, MDI-2268 or MDI-2517 were suspended in 0.5% methylcellulose in water and given orally by gavage at 30 mg/kg (10mL/kg) to 3 mice each. Blood was collected by using heparinized calibrated pipettes at 0.5h, 2h, 4h, and 7h and centrifuged immediately at 15,000g for 10 min. The plasma was collected, which was frozen at −80°C for later LC-MS analysis.

The subject of data set [4] is lung fibrosis induced by targeted type II alveolar epithelial cell injury. Briefly: Targeted AEC2 injury model (diphtheria toxin in DTR mice; hydroxyproline, weight, histology). The settings on record: 60 mg/kg twice daily. The class given is in vivo, DTR-expressing mice (C57BL/6 background).
Data set [5] concerns bleomycin-induced lung fibrosis. Briefly: Single-dose bleomycin lung injury model (hydroxyproline, weight, histology). Format: in vivo, C57BL/6 mice. The method, then:
Weight and age matched mice were anesthetized with isoflurane and received an oropharyngeal instillation of bleomycin (2.5 u/kg in 50 μL of sterile PBS) (Sigma Pharmaceuticals). Control mice received 50 μl of PBS alone. Mice were intermittently weighed through day 21. Hydroxyproline content of the lung was measured as previously described. The left lung was inflation-fixed at 25 cm H2O pressure with 10% neutral-buffered formalin, removed en bloc, further fixed in 10% neutral-buffered formalin overnight, and then paraffin embedded. Five-micron sections were stained using hematoxylin and eosin, and picrosirius red methods.

Data set [6] concerns lung fibrosis induced by targeted type II alveolar epithelial cell injury. As to conditions: model of targeted AEC2 injury; previously shown by the authors; cited from earlier work.
Data set [7] has as its system bleomycin-induced lung fibrosis. Also on record: method as in PMID 26859294. The settings on record: mice following bleomycin injury; cited from earlier work.
Data set [8] has as its system TGFβ-expressing adenovirus-induced lung fibrosis. Also on record: method as in PMID 21852684. As to conditions: started 4 days after fibrosis initiation; cited from earlier work.

Where two headings read alike, the source gives them in different places.

recombinant active human PAI-1, sequence (P05121 24-402): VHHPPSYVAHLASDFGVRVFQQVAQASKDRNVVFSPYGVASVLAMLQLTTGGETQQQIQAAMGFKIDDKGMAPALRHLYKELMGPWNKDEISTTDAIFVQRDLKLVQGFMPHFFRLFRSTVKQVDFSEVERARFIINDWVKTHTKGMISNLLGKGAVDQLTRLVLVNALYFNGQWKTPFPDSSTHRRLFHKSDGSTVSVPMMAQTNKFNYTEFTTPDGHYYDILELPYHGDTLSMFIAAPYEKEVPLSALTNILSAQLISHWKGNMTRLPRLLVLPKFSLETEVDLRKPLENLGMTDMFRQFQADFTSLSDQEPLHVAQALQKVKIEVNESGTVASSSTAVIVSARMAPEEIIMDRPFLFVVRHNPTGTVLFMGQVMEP

Turning to `[O-][S+]1CCc2nc(N3CCC(c4ncc(Cl)cn4)CC3)nc(NC3(CO)CCC3)c21` (stereo not shown) [BI 1015550], the “rate of lung function decline” value in data set [1] is “reduced the rate of lung function decline”.
For the compound `NNC(=O)C(=O)NCc1cccc(OC(F)(F)F)c1` [MDI-2268], the values for the IC50 in data set [2] (buffer containing 10% human PAI-1-depleted plasma), in data set [2] (buffer with 50 nM purified human vitronectin) and in data set [2] (in buffer alone) were 67 µM, 75 µM and 140 µM, respectively. For the same compound, the “fold more effective than Tiplaxtinin at inhibiting PAI-1” value in data set [2] (in the presence of VTN) is “greater than 7 fold”. Also, in data set [3], the AUC0-7h obs is 7405 ± 1302 ng·h/mL.
`COC(=O)c1ccc2c(c1)NC(=O)/C2=C(\Nc1ccc(N(C)C(=O)CN2CCN(C)CC2)cc1)c1ccccc1` [Nintedanib]: in data set [4] (10 days from day 11), the “lung hydroxyproline content day 21” value is reported as “statistically significantly reduced” and the “weight loss vs vehicle-treated injured group” value is given as “mitigated the severity of the weight loss”. In data set [4] (10 days from day 11, day 21), the “histopathologic changes (alveolar wall thickening, picrosirius red staining)” value is given as “significantly attenuated”. In addition, in data set [5] (60 mg/kg twice daily from day 11), the “body weight vs vehicle” value is “recovery of body weight”. For the same compound, in data set [5] (60 mg/kg twice daily, 10 days from day 11), the “lung collagen content (hydroxyproline) day 21” value is given as “statistically significantly attenuated”. Also, the “areas of lung consolidation, picrosirius red histopathology” value in data set [5] (60 mg/kg twice daily, 10 days from day 11, day 21) is listed as “significantly attenuated”. Besides, the “severity of pulmonary scarring” value in data set [6] is on record as “attenuate the severity of pulmonary scarring”.
Turning to `CC(C)(C)c1ccc2oc(-c3ccc4cc(OCCCCCC(C(=O)[O-])C(=O)[O-])ccc4c3)nc2c1.[Na+].[Na+]` [SK-216], in data set [7], the lung fibrosis result is listed as “modestly attenuate lung fibrosis”.
For `O=C(COCC(=O)N1CCN(C(c2ccccc2)c2ccccc2)CC1)Nc1ccc(Cl)cc1C(=O)O` [TM5275], the lung collagen accumulation result in data set [8] is given as “significantly decrease lung collagen accumulation”.
As to `Cc1ccc(=O)n(-c2ccccc2)c1` [pirfenidone], in data set [6], the “severity of pulmonary scarring” value is given as “attenuate the severity of pulmonary scarring”.
